Source: ChEMBL document CHEMBL1201862, “PubChem BioAssay data set” (2004)
Calls of active or inactive are those of the source.

Experiments:
Interleukin-8 [1] = molecular target: T1, Interleukin-8 (Homo sapiens, UniProt P10145); assay: SAR analysis of Tumor necrosis factor alpha (TNF-alpha) induced IL-8 secretion in MCF-7/NOD1 cells - Set 2. [Related pubchem assays (depositor defined):AID1575, AID2250, AID2260]; assay type: functional, cell-based
HEK293 [2] = assay: SAR analysis of compounds that are cytotoxic to HEK293 - Set 2. [Related pubchem assays (depositor defined):AID1575, AID1578, AID1849, AID2001, AID2333, AID2334, AID2335, AID2337, AID2800]; assay type: functional, cell-based; conditions: Homo sapiens
Interleukin-8 [3] = molecular target: T1, Interleukin-8; assay: SAR analysis of GM-Tri-DAP induced IL-8 secretion in MCF-7/NOD1 cells - Set 2. [Related pubchem assays (depositor defined):AID1575, AID1578, AID2333]; assay type: functional, cell-based
[4] = molecular target: T2, Nucleotide-binding oligomerization domain-containing protein 2 (Homo sapiens, UniProt Q9HC29); assay: NOD2 signaling inhibitors, analog potency, SAR follow-up, cell-based, set 3 (AID 2799); assay type: functional
T2 sequence (Q9HC29 whole entry, the tested form may be a part): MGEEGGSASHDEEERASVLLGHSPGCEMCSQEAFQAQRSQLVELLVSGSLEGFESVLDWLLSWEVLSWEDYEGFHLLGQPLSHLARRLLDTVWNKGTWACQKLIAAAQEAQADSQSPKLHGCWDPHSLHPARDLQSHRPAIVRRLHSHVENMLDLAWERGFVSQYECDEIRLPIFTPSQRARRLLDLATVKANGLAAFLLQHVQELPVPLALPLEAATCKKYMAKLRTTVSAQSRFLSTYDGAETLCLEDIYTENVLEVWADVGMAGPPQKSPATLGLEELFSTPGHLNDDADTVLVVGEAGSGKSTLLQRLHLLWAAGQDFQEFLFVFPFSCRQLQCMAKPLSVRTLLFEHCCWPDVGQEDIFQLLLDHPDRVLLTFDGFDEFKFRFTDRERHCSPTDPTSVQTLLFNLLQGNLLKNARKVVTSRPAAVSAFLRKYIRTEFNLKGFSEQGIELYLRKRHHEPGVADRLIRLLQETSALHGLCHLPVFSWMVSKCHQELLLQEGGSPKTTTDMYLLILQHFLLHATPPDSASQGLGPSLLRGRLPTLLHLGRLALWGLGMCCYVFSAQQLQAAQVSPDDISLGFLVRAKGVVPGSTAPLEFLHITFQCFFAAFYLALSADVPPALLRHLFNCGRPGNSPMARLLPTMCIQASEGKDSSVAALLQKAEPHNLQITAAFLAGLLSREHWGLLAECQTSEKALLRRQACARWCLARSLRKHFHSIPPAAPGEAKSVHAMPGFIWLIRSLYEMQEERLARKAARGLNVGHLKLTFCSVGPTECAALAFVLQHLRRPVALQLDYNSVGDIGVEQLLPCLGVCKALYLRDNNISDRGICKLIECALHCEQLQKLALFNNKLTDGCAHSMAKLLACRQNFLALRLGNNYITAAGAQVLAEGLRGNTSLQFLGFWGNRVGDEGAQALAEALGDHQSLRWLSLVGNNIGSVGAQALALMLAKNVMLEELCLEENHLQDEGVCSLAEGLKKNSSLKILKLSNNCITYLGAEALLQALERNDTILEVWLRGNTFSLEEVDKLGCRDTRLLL

[5] = molecular target: T3, Nucleotide-binding oligomerization domain-containing protein 1 (Homo sapiens, UniProt Q9Y239); assay: SAR analysis of NF-kappaB dependent luciferase using DAP as an inducer - Set 2. [Related pubchem assays (depositor defined):AID1566, AID1575, AID1578, AID1579, AID1849, AID1852, AID2264]; assay type: functional
T3 sequence (Q9Y239 whole entry, the tested form may be a part): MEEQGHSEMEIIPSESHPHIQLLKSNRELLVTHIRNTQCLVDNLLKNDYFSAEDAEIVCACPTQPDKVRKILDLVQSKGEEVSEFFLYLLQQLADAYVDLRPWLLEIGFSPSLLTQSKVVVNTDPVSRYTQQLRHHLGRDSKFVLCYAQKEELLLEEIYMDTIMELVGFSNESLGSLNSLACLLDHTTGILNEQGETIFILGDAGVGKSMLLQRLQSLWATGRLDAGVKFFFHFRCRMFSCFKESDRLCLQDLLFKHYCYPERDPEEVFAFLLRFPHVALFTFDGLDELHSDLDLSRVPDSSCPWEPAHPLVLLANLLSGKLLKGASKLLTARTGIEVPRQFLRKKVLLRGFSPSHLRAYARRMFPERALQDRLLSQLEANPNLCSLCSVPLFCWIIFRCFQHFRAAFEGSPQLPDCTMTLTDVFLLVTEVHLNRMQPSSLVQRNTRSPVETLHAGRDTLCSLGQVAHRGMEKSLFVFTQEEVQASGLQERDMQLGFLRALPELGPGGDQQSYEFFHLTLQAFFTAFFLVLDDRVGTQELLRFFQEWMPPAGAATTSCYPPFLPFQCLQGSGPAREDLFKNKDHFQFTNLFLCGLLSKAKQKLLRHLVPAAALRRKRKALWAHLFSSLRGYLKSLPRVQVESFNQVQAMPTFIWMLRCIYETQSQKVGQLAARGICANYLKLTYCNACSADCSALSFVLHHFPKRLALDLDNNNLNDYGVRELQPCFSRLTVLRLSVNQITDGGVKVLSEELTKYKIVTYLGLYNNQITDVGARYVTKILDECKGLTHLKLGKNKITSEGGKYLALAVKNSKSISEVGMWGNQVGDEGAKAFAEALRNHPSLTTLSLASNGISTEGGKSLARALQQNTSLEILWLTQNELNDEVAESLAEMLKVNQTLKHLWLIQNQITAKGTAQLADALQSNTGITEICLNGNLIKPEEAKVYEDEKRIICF

[6] = molecular target: T3, Nucleotide-binding oligomerization domain-containing protein 1; assay: SAR analysis of compounds that inhibit NOD1 - Set 3. [Related pubchem assays (depositor defined):AID1566, AID1575, AID1578, AID1849, AID1852, AID2333, AID2335, AID2466]; assay type: functional
HEK293 [7] = assay: SAR analysis of compounds that are cytotoxic to HEK293 - Set 3. [Related pubchem assays (depositor defined):AID1575, AID1578, AID1848, AID1849, AID2001, AID2333, AID2334, AID2335, AID2337, AID2469]; assay type: functional, cell-based; conditions: Homo sapiens
Tumor necrosis factor = Tumor necrosis factor (Homo sapiens, UniProt P01375); assay: TNFa-triggered NF-kB activation inhibitors, SAR follow-up, cell-based, set 3 (AID 2801); assay type: functional
Chain of Tumor necrosis factor (P01375 whole entry, the tested form may be a part): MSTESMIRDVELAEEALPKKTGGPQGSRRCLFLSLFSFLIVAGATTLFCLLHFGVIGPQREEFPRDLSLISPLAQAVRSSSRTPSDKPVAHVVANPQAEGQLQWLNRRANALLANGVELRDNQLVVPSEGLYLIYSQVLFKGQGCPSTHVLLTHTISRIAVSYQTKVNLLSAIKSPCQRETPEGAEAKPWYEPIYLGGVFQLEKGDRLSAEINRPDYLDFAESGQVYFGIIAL

[8] = molecular target: T2, Nucleotide-binding oligomerization domain-containing protein 2; assay: NOD2 inhibitors, SAR follow-up, set 2 (AID 2475); assay type: functional
[9] = molecular target: Lysine-specific demethylase 4C (Homo sapiens, UniProt Q9H3R0); assay: GASC-1 (JMJD2C) histone demethylase inhibitors, dose response, biochemical, DELFIA europium, cherry-picked samples (AID 488835); assay type: functional
Chain of Lysine-specific demethylase 4C (Q9H3R0 whole entry): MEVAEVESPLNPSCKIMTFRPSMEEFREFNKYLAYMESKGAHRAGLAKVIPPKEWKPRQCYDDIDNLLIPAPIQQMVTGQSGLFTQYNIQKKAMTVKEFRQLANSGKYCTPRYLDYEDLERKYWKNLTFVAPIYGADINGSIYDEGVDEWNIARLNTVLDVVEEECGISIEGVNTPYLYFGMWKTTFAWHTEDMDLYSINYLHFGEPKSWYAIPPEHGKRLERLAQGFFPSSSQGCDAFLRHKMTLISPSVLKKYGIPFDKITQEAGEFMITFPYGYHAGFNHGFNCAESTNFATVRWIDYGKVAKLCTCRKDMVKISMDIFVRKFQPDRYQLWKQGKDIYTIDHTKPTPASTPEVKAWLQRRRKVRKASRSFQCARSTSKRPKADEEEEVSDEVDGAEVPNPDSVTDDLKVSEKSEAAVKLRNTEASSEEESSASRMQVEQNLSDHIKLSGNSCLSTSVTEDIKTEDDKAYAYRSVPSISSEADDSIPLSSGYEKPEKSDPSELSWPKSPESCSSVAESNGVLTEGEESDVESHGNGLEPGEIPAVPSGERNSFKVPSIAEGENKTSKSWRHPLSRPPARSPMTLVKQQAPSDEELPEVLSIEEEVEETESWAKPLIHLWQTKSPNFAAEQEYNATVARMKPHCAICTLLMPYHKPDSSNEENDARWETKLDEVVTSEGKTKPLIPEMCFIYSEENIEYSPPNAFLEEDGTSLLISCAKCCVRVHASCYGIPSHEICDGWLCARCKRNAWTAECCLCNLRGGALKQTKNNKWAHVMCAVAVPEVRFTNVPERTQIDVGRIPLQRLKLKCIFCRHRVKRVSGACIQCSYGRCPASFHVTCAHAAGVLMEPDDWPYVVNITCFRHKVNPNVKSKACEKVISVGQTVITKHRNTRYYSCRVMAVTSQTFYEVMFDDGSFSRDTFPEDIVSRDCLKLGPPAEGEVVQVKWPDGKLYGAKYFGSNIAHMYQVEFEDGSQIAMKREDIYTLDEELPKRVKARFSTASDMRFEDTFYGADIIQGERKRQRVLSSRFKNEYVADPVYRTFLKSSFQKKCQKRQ

[10] = molecular target: Lysine-specific demethylase 4A (Homo sapiens, UniProt O75164); assay: JMJD2A histone demethylase inhibitors, dose response, selectivity assay for GASC-1 inhibitor project, biochemical, DELFIA europium, cherry-picked samples (AID 488840)
[11] = molecular target: T4, Corticotropin-releasing factor receptor 2/Corticotropin-releasing factor-binding protein (Homo sapiens, UniProt P24387+Q13324); assay: activators of CRF receptor 2 with binding protein – uHTS hits, confirmation (AID 602473); assay type: functional; conditions: read-out: EC50_Mean
T4 sequence (Q13324 whole entry): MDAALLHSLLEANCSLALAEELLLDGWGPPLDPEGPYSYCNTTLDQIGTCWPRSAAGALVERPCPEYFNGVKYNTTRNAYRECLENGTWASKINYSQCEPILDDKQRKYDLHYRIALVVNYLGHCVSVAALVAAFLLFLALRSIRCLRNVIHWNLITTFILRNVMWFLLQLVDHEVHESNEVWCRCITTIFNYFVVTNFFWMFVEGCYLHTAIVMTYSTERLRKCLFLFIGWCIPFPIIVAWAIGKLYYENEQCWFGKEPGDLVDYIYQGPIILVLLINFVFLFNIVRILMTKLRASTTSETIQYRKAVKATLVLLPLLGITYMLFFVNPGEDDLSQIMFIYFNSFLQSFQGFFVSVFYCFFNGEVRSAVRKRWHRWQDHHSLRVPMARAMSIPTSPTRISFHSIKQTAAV
T4 sequence (P24387 whole entry): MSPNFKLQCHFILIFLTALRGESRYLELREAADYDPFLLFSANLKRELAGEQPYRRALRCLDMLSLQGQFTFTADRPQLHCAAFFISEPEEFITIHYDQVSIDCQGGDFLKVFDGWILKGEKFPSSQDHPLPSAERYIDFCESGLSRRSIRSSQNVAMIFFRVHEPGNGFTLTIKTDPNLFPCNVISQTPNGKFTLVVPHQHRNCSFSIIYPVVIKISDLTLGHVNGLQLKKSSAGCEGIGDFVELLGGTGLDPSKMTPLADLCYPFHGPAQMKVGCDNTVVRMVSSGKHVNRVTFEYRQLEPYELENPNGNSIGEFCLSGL

[12] = molecular target: NAD-dependent protein deacylase sirtuin-5, mitochondrial (Homo sapiens, UniProt Q9NXA8); assay: SIRT5 desuccinylase inhibitors, dose response, biochemical, fluorescence imaging, cherry-pick, set 5 (AID 720591);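 further: desuccinylation of succinyl peptide AMC substrate read as fluorescence after trypsin release; potency of inhibitors that lower fluorescence and may act on trypsin instead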
Chain of NAD-dependent protein deacylase sirtuin-5, mitochondrial (Q9NXA8 whole entry): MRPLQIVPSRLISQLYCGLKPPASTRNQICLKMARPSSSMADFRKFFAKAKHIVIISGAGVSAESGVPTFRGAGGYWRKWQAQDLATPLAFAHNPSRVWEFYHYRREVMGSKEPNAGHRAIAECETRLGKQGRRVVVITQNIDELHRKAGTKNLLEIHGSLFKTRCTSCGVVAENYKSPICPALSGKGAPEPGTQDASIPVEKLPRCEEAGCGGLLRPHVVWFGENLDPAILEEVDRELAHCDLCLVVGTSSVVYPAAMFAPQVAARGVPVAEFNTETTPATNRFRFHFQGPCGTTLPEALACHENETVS

Genome polyprotein = Genome polyprotein (dengue virus type 2, UniProt P29990); assay: Dengue-2 NS5 methyltransferase inhibitors, primary screen, biochemical, confirmation dose response (AID 588689); assay type: functional
Chain of Genome polyprotein (P29990 2492-3391 limits assumed): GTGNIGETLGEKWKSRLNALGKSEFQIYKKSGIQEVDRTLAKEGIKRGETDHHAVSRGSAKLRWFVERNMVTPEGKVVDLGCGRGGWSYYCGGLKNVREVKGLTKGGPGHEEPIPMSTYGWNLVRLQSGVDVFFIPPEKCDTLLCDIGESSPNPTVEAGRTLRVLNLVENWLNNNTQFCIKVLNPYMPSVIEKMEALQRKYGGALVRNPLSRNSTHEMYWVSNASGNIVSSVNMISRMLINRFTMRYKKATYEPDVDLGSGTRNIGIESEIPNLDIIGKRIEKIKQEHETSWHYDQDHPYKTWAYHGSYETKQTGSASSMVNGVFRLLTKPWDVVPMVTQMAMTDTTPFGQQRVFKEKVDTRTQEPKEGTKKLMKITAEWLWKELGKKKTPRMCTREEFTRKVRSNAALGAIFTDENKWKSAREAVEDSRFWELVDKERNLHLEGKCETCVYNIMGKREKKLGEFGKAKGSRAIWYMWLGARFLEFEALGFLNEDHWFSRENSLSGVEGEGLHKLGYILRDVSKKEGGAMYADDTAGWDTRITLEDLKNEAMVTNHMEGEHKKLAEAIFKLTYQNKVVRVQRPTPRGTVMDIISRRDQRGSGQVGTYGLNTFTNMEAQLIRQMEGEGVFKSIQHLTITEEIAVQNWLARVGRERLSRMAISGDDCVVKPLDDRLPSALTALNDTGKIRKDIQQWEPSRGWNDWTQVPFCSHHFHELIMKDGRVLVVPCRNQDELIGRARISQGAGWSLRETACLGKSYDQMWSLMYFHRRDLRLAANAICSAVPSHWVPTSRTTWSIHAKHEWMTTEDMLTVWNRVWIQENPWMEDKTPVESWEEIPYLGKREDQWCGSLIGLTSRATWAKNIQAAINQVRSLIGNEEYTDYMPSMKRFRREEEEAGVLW

Vero = Vero cell cytotoxicity, cytotoxicity control for flavivirus capping enzyme inhibitors (AID 588742); assay type: functional; conditions: Chlorocebus sabaeus
[13] = molecular target: T4, Corticotropin-releasing factor receptor 2/Corticotropin-releasing factor-binding protein; assay: Dose Response confirmation of uHTS hits for small molecule antagonists of the CRF-binding protein and CRF-R2 receptor complex.; assay type: functional; conditions: read-out: IC50_Mean

T1 sequence (P10145 whole entry): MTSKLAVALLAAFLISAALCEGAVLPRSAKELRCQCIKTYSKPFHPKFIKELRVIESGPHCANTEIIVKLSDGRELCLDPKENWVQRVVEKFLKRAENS

| SMILES | IC50 (Interleukin-8 [1]) | IC50 (HEK293 [2]) | IC50 (Interleukin-8 [3]) | IC50 [4] | IC50 [5] | IC50 [6] | IC50 (HEK293 [7]) | IC50 (Tumor necrosis factor) | IC50 [8] | AC50 [9] | AC50 [10] | EC50 [11] | AC50 [12] | IC50 (Genome polyprotein) | CC50 (Vero) | IC50 [13] |
| --- | --- | --- | --- | --- | --- | --- | --- | --- | --- | --- | --- | --- | --- | --- | --- | --- |
| CC(C)Sc1nc2c(c(=O)[nH]c(=O)n2C)n1Cc1ccccc1 | > 25 µM (inactive) | > 20 µM (inactive) | 3.31 µM (active) | > 20 µM (inactive) | 18.5 µM (active) | 1.99 µM (active) | > 20 µM (inactive) | > 20 µM (inactive) | 18.1 µM (active) |  |  |  |  |  |  |  |
| CCc1ccc([C@@H]2CC=C(C(=O)O)[C@H](c3ccc(C(C)(C)C)cc3)N2S(=O)(=O)c2ccc(C)cc2)cc1 |  |  |  |  |  |  |  |  |  | 14.8 µM (active) | 9.31 µM (active) | 27.8 µM (active) | 13.5 µM (active) | 37 µM (active) | > 40 µM (active) | < 0.368 µM (active) |
